Assay results published in article PMC6930524, “A Prospective Repurposing of Dantrolene as a Multitarget Agent for Alzheimer’s Disease” (Molecules, 2019).

Experiments:
[1] = molecular target: MAO B, human enzyme; parameters: method as in PMID 22282722; settings: competitive inhibition; cited from earlier work
[2] = ABTS radical scavenging assay; type: physicochemical; settings: compound at 0.2·[ABTS+]
Excerpt: (§1) Starting from these evidences, we tested DAN in two in vitro models of radical scavenging activity, i.e., the 1,1-diphenyl-2-picryl-hydrazyl (DPPH) and 2,2′-azinobis-(3-ethylbenzothiazoline-6-sulfonic acid) (ABTS) free radical production. Both generate stable nitrogen radicals showing high absorption in visible spectrum, thus allowing easy and straightforward spectrophotometric measures. […] It can be assumed that the antioxidant activity of DAN is independent from its radical scavenging properties.
(§2) Already published protocols for DPPH and […] radical scavenging were used. The scavenging of the radical DPPH^·, or the monocation radical ABTS^·+, were determined by measuring the loss of absorbance at 515 or 755 nm, respectively. Samples were prepared in clear polystyrene flat-bottomed 96-well microplates. […] A preliminary absorbance reading at 755 nm allowed to determine the actual ABTS^·+ concentration (normally 60–70 μM; extinction coefficient ε = 12,000) and set the final concentration of inhibitors to 0.2[ABTS^·+]. 215 μL of ABTS^·+ solution were mixed with 35 μL of stock solution of inhibitors and the decrease in absorbance was monitored. Antioxidant activity was determined from Equation (2) as the percentage of radical production of inhibitor containing samples, compared with control: % radical production = 100 × ABSsample/ABScontrol(2)

[3] = DPPH radical scavenging assay; type: physicochemical; settings: compound 50 μM, DPPH 100 μM
Excerpt: as §1, §2

| Compound | Ki for human MAO B (competitive) [1] | ABTS radical scavenging activity [2] | DPPH radical scavenging activity [3] |
| --- | --- | --- | --- |
| CCc1ccc(CCOc2ccc(CC3SC(=O)NC3=O)cc2)nc1 (stereo not shown) [pioglitazone] | submicromolar |  |  |
| O=c1c(O)c(-c2ccc(O)c(O)c2)oc2cc(O)cc(O)c12 [quercetin] |  | strong radical scavenger | strong radical scavenger |
| CN(CCOc1ccc(CC2SC(=O)NC2=O)cc1)c1ccccn1 (stereo not shown) [rosiglitazone] | low- |  |  |
